Reference: patent publication US9308222B2, “Formulas comprising highly soluble elements and vitamins for the prevention and amelioration of osteoporosis” (priority 2008, dated 2016)
One block for each compound: values may come before it.

Experiments:
[1] = humans; cited from earlier work
[2] = according to the literature; cited from earlier work
[3] = rats; cited from earlier work
[4] = fortified foods, dual isotope techniques; cited from earlier work
[5] = Calcium, magnesium and zinc balance in rats receiving calcium free diet
Excerpt: Male Sprague-Dawley rats (about 6-7 weeks), with an initial weight between 220 g to 250 g, were randomly divided into different treatment groups. All the rats were housed in individual metabolic cages in a temperature-controlled room. Each rat received free access to the normal diet (Table 34) before the experiment. Both normal and calcium free diets (Table 34) were used in this set of studies. De-ionized water was provided ad libitum. All the rats were weighed before treatment.
In each study, there were seven treatment groups. […] Rats participating in the normal diet study received normal diet ad libitum throughout. Rats participating in the group of calcium free diet received the calcium free food ad libitum starting five days before and throughout treatment. In both study groups, animals received one dose a day for five days. […] Values of dosage and dietary intake were measured for the calculation of elemental balance. […] Daily elemental dosages, similar to that of human's, are 53.14 mg/kg for calcium, 0.38 to 55 mg/kg/day for magnesium and 0.017 to 2.5 mg/kg/day for zinc. […] The vehicle for preparing each dose was de-ionized water. The concentration of calcium in all dosage preparations was 15.94 mg/mL. One mL of each preparation was administered by gavage. Body weight, elemental dosage and diet consumption were recorded daily.
Animals were housed individually in a metabolic cage five days before the study. Food consumption was evaluated daily. Urine and feces were collected daily for four days and the content of calcium, magnesium and zinc was determined. On Day 5, each animal received its treatment. […] Immediately after blood collection, the animal was then sacrificed with an overdose of isoflourane. Each blood sample was centrifuged at 1900 rpm at room temperature; plasma was harvested and stored at −20° C. until analysis. Urine was measured daily; it was diluted with de-ionized water, filtered and an aliquot was stored at −20° C. until analysis. Daily fecal output was collected and lyophilized. Each sample was weighed and digested using a mixture of three volume of nitric acid and one volume of perchloric acid. For every gram of dried feces, 10 mL of acid mixture was added. Each sample was digested for three days. The volume of the digested sample was measured and an aliquot of the digest was stored at −20° C. until analysis. The content of calcium, magnesium and zinc in plasma, feces and urine were determined using ICP-OES.
Cumulated calcium balance and % cumulated net calcium balance were calculated using equations (1) and (2), except, the sum of daily intake and excretion was used for calculation. The balance for magnesium and zinc was also calculated using the concept of equations (1) and (2). Cumulated elemental balance and % cumulated net elemental balance were calculated in a similar fashion as described above.
All results were analyzed using two-way ANOVA. […] The data are presented as mean±S.D. and mean±S.E.M. in tables and figures, respectively.

Compound: O=C([O-])[O-].[Ca+2] [calcium carbonate]
Amount of calcium absorbed (bioavailability) [1]: 24%

Compound: O=C([O-])CC(O)(CC(=O)[O-])C(=O)[O-].O=C([O-])CC(O)(CC(=O)[O-])C(=O)[O-].[Ca+2].[Ca+2].[Ca+2] [calcium citrate]
Bioavailability of calcium [2]: 30%

Compound: [O]=[Mg] [magnesium oxide]
Bioavailability of magnesium [3]: 50%

Compound: [O]=[Zn] [zinc oxide]
Bioavailability of zinc [4]: approximately 24%

Bioavailability of calcium compared to calcium carbonate ([5]; Tables 36 and 40, dependent on the diet condition): at least 2 fold
Cumulative net percentage of calcium ([5]; calcium free diet, Day 1): −30.6 ± 51.3 ^ %
Cumulative net percentage of calcium ([5]; calcium free diet, Day 2): −9.88 ± 26.5 ^ %
Cumulative net percentage of calcium ([5]; calcium free diet, Day 3): 4.88 ± 24.0 ^ %
Cumulative net percentage of calcium (calcium retention) ([5]; calcium free diet, Day 4): 11.1 ± 20.0 ^ %
Compound: Calcium Acetate
